Test results taken from publication PMC12434536, “Radiosynthesis and Preclinical Evaluation of a Carbon-11 Labeled Phosphodiesterase 7 Inhibitor for PET Neuroimaging” (ACS Medicinal Chemistry Letters, 2025).

Tests used:
PDE7 [1] = assay: PET imaging in nonhuman primates (baseline and self-blocking); type: in vivo, Cynomolgus monkeys; conditions: monkeys, self-blocking, 0.4 or 1 mg/kg
Description: Cynomolgus monkeys used for PET/CT scan were deprived of food for 12h but allowed to drink water at any time. Animals (Male, bodyweight 5.0-5.2 kg) were anesthetized with ketamine, placed into the scanner (GE Discovery Elite 690, USA), and maintained with 2% isoflurane and 98% oxygen. A solution of [11C]27 (6.24–9.84 mCi) was injected into the monkey via a venous catheter, followed by a dynamic PET scan. For the blocking study, the blocking reagent reference compound 27 (0.4 or 1.0 mg/kg, iv) was used, followed by the injection of [11C]27. Time-activity curves of each brain region were extracted from the corresponding VOIs and brain uptake was decay-corrected and expressed as SUV. biodistribution studies in miceWhole-body ex vivo

[2] = tested on: CYP2C9, CYP2C19, CYP2D6, CYP3A4; assay: CYP450 isoform inhibition profiling, other isoforms; type: in vitro ADME; conditions: all isoforms except CYP1A2; read-out: IC50 against the other CYP450 isoforms
Description: (§1) page 5: protein-ligand complex were saved and were then loaded into Schrödinger Maestro to generate the ligand interaction plot. In vitro inhibitory assay to PDE7 of compound 27 and selectivity to other PDEs Functional activity of target compound 27 for inhibition of PDE7A activity and the selectivity over other PDE isozymes ([…], and 10A) were evaluated by Eurofins Panlabs Discovery Services and Reaction Biology Corp., respectively. Human recombinant enzymes were used for the assays. The inhibitory assays were performed and calculated in duplicate at 3 μM. If the inhibition percentage was less […] duplicate. CYP450 isoform metabolism and in vitro safety profiling The inhibitory constant of compound 26 toward cytochrome P450-dependent metabolic pathways was determined for individual CYP isoform (CYP1A2, CYP2C9, CYP2C19, CYP2D6, and CYP3A4). Reference inhibitors were included as positive controls. A 10 μM solution of compound 27 was used for initial screening. If the inhibition percentage was less than 50%, the experiment was stopped. […] gradient concentrations of compound 27 were used for IC 50 determination. The P450 reactions were detected at Ext/Em: 405 nm/460 nm (530 nm/605 nm for CYP2C9) in a S3 page 6: […] IC50 curves were plotted using a non-linear regression model with Graphpad Prism 6. […] Plasma and brain samples were quantified by LC-MS/MS method. […]

[3] = Plasma protein binding (free fraction); type: in vitro ADME; conditions: mouse, rat, and human plasma
Description: The general procedure for lipophilicity measurement was previously described, 4 with minor modification in this work. Briefly, the measurement of LogD value was carried out by mixing [11C]27 (radiochemical purity > 99%) with n-octanol (3.0 g) and PBS (0.1 M, 3.0 g) in a test tube. Both n-octanol and PBS were pre-saturated with each other prior to use. The tube was first vortexed for 5 min, followed by centrifugation (~3500-4000 rpm) for an additional 5 min. PBS and n-octanol were aliquoted, weighed and the radioactivity in each component was measured using a Cobra Model 5002/5003 gamma counter. The LogD was determined by Log [ratio of radioactivity in n-octanol and aqueous layer, respectively] (n = […]
For the evaluation of plasma protein binding,5 55.5 MBq radiotracer was added to 150 μL of plasma, which was pre-incubated under 37 °C for 5 min (n = 3). The samples were incubated at 37 °C for 10 min. To each 150 μL of radiotracer-plasma solution was added 300 μL of ice-cold PBS and all samples were briefly vortexed. […] The radioactivity (in Becquerel) was measured in the protein fraction (Aprotein), filtrate, and filter unit using a gamma counter (Wizard, PerkinElmer), Atotal was calculated as the sum of radioactivity, and the free fraction f u was calculated according to the following eq.: f u = 1-

CYP1A2 = target: T1, CYP1A2 (Homo sapiens, UniProt P05177); assay: CYP450 isoform inhibition profiling, CYP1A2; type: in vitro ADME
T1 sequence (P05177 1-516): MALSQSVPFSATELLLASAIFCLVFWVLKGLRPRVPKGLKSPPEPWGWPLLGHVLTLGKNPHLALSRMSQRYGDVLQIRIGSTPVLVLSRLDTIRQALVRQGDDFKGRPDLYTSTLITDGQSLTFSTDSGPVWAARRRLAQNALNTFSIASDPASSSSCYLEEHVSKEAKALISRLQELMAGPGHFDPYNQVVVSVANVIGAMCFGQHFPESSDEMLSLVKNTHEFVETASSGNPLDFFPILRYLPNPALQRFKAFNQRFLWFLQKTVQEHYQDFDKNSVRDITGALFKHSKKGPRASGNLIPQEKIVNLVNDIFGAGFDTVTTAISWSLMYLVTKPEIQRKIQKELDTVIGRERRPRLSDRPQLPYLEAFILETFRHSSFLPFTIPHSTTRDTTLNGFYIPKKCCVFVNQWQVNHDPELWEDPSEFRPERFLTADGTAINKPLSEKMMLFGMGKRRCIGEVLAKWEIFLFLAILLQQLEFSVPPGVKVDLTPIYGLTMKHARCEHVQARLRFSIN
Description: as §1

PDE7 [4] = assay: PET imaging in rats (baseline and self-blocking); type: in vivo, Sprague-Dawley rats; conditions: SD rats, self-blocking, 1 mg/kg
Description: page 10: All animal experiments were approved by the Institutional Animal Care and Use Committee of Massachusetts General Hospital or the National Institute of Radiological Sciences (Japan). C57BL/6 mice (female; 8 weeks, 20-25 g) and Sprague-Dawley rats (male; 8-9 weeks; 264-310 g) were kept on a 12 h light/12 h dark cycle and were allowed food and water ad libitum. Rodent PET scans were carried out using a […] (Sofie Biosciences, Culver, CA, USA) or a Siemens Inveon PET/CT system. Animals were kept under anesthesia using 1-2% (v/v) isoflurane in oxygen during the scan. The radiotracer (1.85 MBq for mice; 42-53 MBq for rats) was injected into the tail vein via a preinstalled catheter. A dynamic scan in 3D list mode was acquired for 60 min. The PET dynamic images were reconstructed using the manufacturer's acquisition software. Volumes of interest, including whole brain, cortex, striatum, hippocampus, thalamus and cerebellum were placed using AMIDE / PMOD software. The radioactivity was decay-corrected and expressed as standardized uptake value (SUV = radioactivity per mL tissue / injected radioactivity × bodyweight). S8

**Q.** With `COc1ccc(Cl)c2c1C1(CCCCC1)NC(=O)N2` [Compound 27] as the compound, how does the “effect of pretreatment on [11C]27 uptake in all assessed brain regions” value (PDE7 [1]) read?
**A.** The value was “moderately reduced”.

**Q.** What about the IC50 at 80 min [2] of the same compound?
**A.** The IC50 at 80 min was no less than 10 µM.

**Q.** And the fraction unbound at 10 min [3]?
**A.** The fraction unbound at 10 min was no less than 0.01.

**Q.** And the IC50 (CYP1A2)?
**A.** The IC50 was 4.4 µM.

**Q.** What about the “effect of pretreatment on [11C]27 brain uptake” value (PDE7 [4]) of the same compound?
**A.** The value was “marginally reduced brain uptake”.
